This is an account of results in PubChem BioAssay AID1259407 (Chemical Carcinogenesis Research Information System (CCRIS), 2018).

Each structure is given as a SMILES string. Active and inactive are the calls of the source. The rule behind the calls is not given here.

The data set concerns CCRIS mutagenicity, Ames/micronucleus/aberration tests. The data set is described as follows: CCRIS mutagenicity studies.

For the compound `CC#N`, the mutagenic call (End Point: IN VITRO CHROMOSOMAL ABERRATIONS, Test System: CHINESE HAMSTER OVARY CELLS, Metabolic Activation: NONE) is “inactive; negative”; the mutagenic call (End Point: IN VITRO CHROMOSOMAL ABERRATIONS, Test System: CHINESE HAMSTER OVARY CELLS, Metabolic Activation: RAT, LIVER, S-9, AROCLOR 1254) was “active; positive; statistically significant increase, but not dose-related”; the mutagenic call (Test System: AMES SALMONELLA TYPHIMURIUM, Strain/Indicator: TA98, Metabolic Activation: HAMSTER, LIVER, S-9, AROCLOR 1254 (10 OR 30%), Method: PREINCUBATION) was “inactive; negative”; the mutagenic call (Test System: AMES SALMONELLA TYPHIMURIUM, Strain/Indicator: TA98, Metabolic Activation: NONE, Method: PREINCUBATION) was “inactive; negative”; the mutagenic call (Test System: AMES SALMONELLA TYPHIMURIUM, Strain/Indicator: TA98, Metabolic Activation: RAT, LIVER, S-9, ACETONITRILE (AUTOINDUCTION), Method: PREINCUBATION) was “inactive; negative”; the mutagenic call (Test System: AMES SALMONELLA TYPHIMURIUM, Strain/Indicator: TA98, Metabolic Activation: RAT, LIVER, S-9, AROCLOR 1254 (10 OR 30%), Method: PREINCUBATION) was “inactive; negative”. The mutagenic call (Test System: AMES SALMONELLA TYPHIMURIUM, Strain/Indicator: TA98, Metabolic Activation: RAT, LIVER, S-9, PHENOBARBITONE, Method: PREINCUBATION) was “inactive; negative”; the mutagenic call (Test System: AMES SALMONELLA TYPHIMURIUM, Strain/Indicator: TA100, Metabolic Activation: HAMSTER, LIVER, S-9, AROCLOR 1254 (10 OR 30%), Method: PREINCUBATION) is “inactive; negative”; the mutagenic call (Test System: AMES SALMONELLA TYPHIMURIUM, Strain/Indicator: TA100, Metabolic Activation: NONE, Method: PREINCUBATION) is “inactive; negative”; the mutagenic call (Test System: AMES SALMONELLA TYPHIMURIUM, Strain/Indicator: TA100, Metabolic Activation: RAT, LIVER, S-9, ACETONITRILE (AUTOINDUCTION), Method: PREINCUBATION) was “inactive; negative”; the mutagenic call (Test System: AMES SALMONELLA TYPHIMURIUM, Strain/Indicator: TA100, Metabolic Activation: RAT, LIVER, S-9, AROCLOR 1254 (10 OR 30%), Method: PREINCUBATION) was “inactive; negative”; the mutagenic call (Test System: AMES SALMONELLA TYPHIMURIUM, Strain/Indicator: TA100, Metabolic Activation: RAT, LIVER, S-9, PHENOBARBITONE, Method: PREINCUBATION) is “inactive; negative”. Also, the mutagenic call was “inactive; negative” (Test System: AMES SALMONELLA TYPHIMURIUM, Strain/Indicator: TA1535, Metabolic Activation: HAMSTER, LIVER, S-9, AROCLOR 1254 (10 OR 30%), Method: PREINCUBATION); “inactive; negative” (Test System: AMES SALMONELLA TYPHIMURIUM, Strain/Indicator: TA1535, Metabolic Activation: NONE, Method: PREINCUBATION); “inactive; negative” (Test System: AMES SALMONELLA TYPHIMURIUM, Strain/Indicator: TA1535, Metabolic Activation: RAT, LIVER, S-9, AROCLOR 1254 (10 OR 30%), Method: PREINCUBATION); “inactive; negative” (Test System: AMES SALMONELLA TYPHIMURIUM, Strain/Indicator: TA1537, Metabolic Activation: HAMSTER, S-9, AROCLOR 1254 (10 OR 30%), Method: PREINCUBATION); “inactive; negative” (Test System: AMES SALMONELLA TYPHIMURIUM, Strain/Indicator: TA1537, Metabolic Activation: NONE, Method: PREINCUBATION); “inactive; negative” (Test System: AMES SALMONELLA TYPHIMURIUM, Strain/Indicator: TA1537, Metabolic Activation: RAT, LIVER, S-9, AROCLOR 1254 (10 OR 30%), Method: PREINCUBATION).
